We go through one molecule from patent US20230277669A1, “USES OF UROLITHINS” (Amazentis SA, priority 2022, published 2023).

For one assay, the system named is TIL CD8+ population. The assay can be described thus: Flow cytometry analysis of TIL of UA-fed mice with APTK tumors. In kind it is in vivo, C57BL/6 mice. The protocol:
(FIG. 2A) Scheme of CD3+ T-cell activation and analysis for various timepoints. (FIG. 2B) Reduced effector molecule expression on in vitro treated cells (n=3 pooled from three independent experiments). Isolated T-cells were stimulated for 48 h at the presence of UA or DMSO in the indicated doses. Data are mean ± SD, *p < 0.05 by two-sided t-test. (FIG. 2C) Reduced effector molecule expression on in vitro treated cells (n=3 pooled from three independent experiments). Isolated T-cells were stimulated for 48 h at the presence of UA or DMSO in the indicated doses. Data are mean ± SD, *p < 0.05 by two-sided t-test. (FIG. 2D) Quantification of T memory stem cells (TSCM: CD44^-CD62L^+Sca1^hi) after 24 h, 48 h and 96 h post stimulation with aCD3/aCD28 stimulation beads as indicated in (A) (n=4 pooled from four independent experiments). Data are mean ± SD, statistical analysis was performed via two-sided t-test (*p < 0.05; **p < 0.01; n.s. not significant). (FIG. 2E) Mitochondrial membrane potential within naïve CD62L^+CD44^-CD8^+ T cells, with TMRM^lo representing cells with low mitochondrial membrane potential. Cells were stimulated for 48 h as depicted in (A). Data are mean ± SD, n=4; ***p <0.001 by two-sided t-test. Experiment was repeated twice in independent experiments. (FIG. 2F) Representative histogram and quantification of memory marker CD95 expression in CD62L^+CD44^-CD8^+ cells, 48 hours after in vitro stimulation. Data are mean ± SD; n=5; ****p < 0.0001 by two-sided t-test. Data depicts one of two independent experiments. (FIG. 2G) Analysis of TIL of UA-fed mice, treated as depicted in FIG. 1J. Percentage of TSCM within CD8+ (G; n=7), as well as TCF1 (H; n=7) PD1^hi,Tim3^hi and CTLA4hi (I-K, all n=6) in the TIL CD8+ population are shown. Data are mean ± SD, statistical analysis was performed via two-sided t-test (*p < 0.05; **p < 0.01;, ***p <0.001.). Data depicts one of two independent experiments. (FIG. 2H) The same experiment as FIG. 2G with TCF1 (n=7) in the TIL CD8+ population. (FIG. 2I) The same experiment as FIG. 2G with PD1^hi (n=6) in the TIL CD8+ population. (FIG. 2J) The same experiment as FIG. 2G with Tim3^hi (n=6) in the TIL CD8+ population. (FIG. 2K) The same experiment as FIG. 2G with CTLA4hi (n=6) in the TIL CD8+ population. (FIG. 2L) Flow cytometry readout of ex vivo cytokine release of previously isolated TIL upon re-stimulation with PMA/ionomycin. Data are mean ± SD with n=7 per group. Statistical analysis was performed by two-sided t-test (**p < 0.01). One out of two independent experiments are shown. (FIG. 2M) Flow cytometry readout of ex vivo cytokine release of previously isolated TIL upon re-stimulation with PMA/ionomycin. Data are mean ± SD with n=7 per group. Statistical analysis was performed by two-sided t-test (**p < 0.01). One out of two independent experiments are shown.
(FIG. 5L) UA induces PGC-1α expression in stimulated CD8+ cells. PGC-1α MFI at 48 h upon stimulation, as assessed by intracellular staining, is shown (n=3). One of two independent experiments are shown. Data are mean ± SD, statistical analysis was performed by two-sided t-test (p**<0.01). (FIG. 5M) Mitochondrial content of TIL CD8+ cells harvested from APTK-carrying mice, fed UA or control diet as depicted in FIG. 1J. Assessed by Mitotracker Red staining. Data are mean ± SD, *p < 0.05 by two-sided t-test. (FIG. 5N) Mitophagy and subsequent PGAM5 release drive PGC-1α upregulation. PGC-1α expression of CD8+ cells derived from Pink1^-/- KO mice upon 48 h stimulation in vitro in the presence of UA or DMSO control (n=4). Data are mean ± SD, statistical analysis was performed by two-sided t-test. Depicts one of two independent experiments. (FIG. 5O) Mitophagy and subsequent PGAM5 release drive PGC-1 α upregulation. PGC-1α expression of CD8+ cells derived from PGAM5^-^/- mice upon 48 h stimulation in vitro in the presence of UA or DMSO control (n=4). Data are mean ± SD, statistical analysis was performed by two-sided t-test. […]

The test system of a further assay is muscle function. The conditions noted are these: urolithin A-high diet, cited from earlier work.
[1] abbreviates: ex vivo restimulation with PMA/ionomycin.

SMILES strings stand for the structures.

As to `O=c1oc2cc(O)ccc2c2ccc(O)cc12` [Urolithin A], in the assay with TIL CD8+ population (UA or control diet), the “mitochondrial content in TIL of APTK tumors” value is “increased mitochondrial content”. Moreover, in the assay on TIL CD8+ population (UA-fed mice), the “CD8+CD44loCD62LhiSca1hi T cells (TSCM) in APTK-induced tumors” value was “marked increase”; the “TCF1 expression in tumor infiltrating CD8+ T cells” value is given as “increased expression”; the “dendritic cells (DCs), TAMs, MDSC subsets in TME” value was “no change”; the “exhaustion marker CTLA-4 in CD8+ T cells” value is reported as “reduction”. Moreover, in the assay with TIL CD8+ population (UA-fed mice), the “exhaustion marker PD-1 in CD8+ T cells” value was “reduction” and the “exhaustion marker Tim3 in CD8+ T cells” value is recorded as “reduction”. For the same molecule, in the assay on TIL CD8+ population (setting [1]), the “IFNg induction in tumor infiltrating CD8+ T cells” value is “stronger induction” and the “TNFa induction in tumor infiltrating CD8+ T cells” value is reported as “stronger induction”. Moreover, the “recovery of muscle function” value in the assay on muscle function (mice with Duchenne muscular dystrophy) is “recovery of muscle function”. Besides, in the assay on muscle function, the muscle function result is listed as “superior muscle function”.
